The data set is described as follows: Human HepG2 cell viability assay in 384 well format. The class given is toxicity, cell-based. Details: dose 125 nL, time 70.5 hour; cytotoxicity at 70.5 h: concentration not given beside the values. Conditions: HepG2 cells, read-out: Inhibition.
Consider `CCC1(CC)Cc2ccccc2-c2nc(NCCO)[nH]c(=O)c21`, for which the cytotoxicity at 70.5 h is -1.26%.
Take `O=C(Nc1ccccc1)N1CCC2(CC(=O)N(c3ccsc3)C2)C1` (configuration not stated): the cytotoxicity at 70.5 h is -10%.
Under `N#Cc1cccc(CN2C[C@@H](NC(=O)C3CC3)[C@H]3OCCC[C@H]32)c1` stands -12.1%; under `O=C(c1ccnnc1)N1CCO[C@H]2[C@H](Oc3cccnc3)CC[C@@H]21`, -13.8%.
Regarding `CC1=N[C@@]2(CC[C@@H]3CN(Cc4ccccc4F)C[C@@H]32)C(=O)N1C`, the cytotoxicity at 70.5 h was -20%.
Consider `COCC1Cn2nnc(-c3cnn(C)c3)c2CN1Cc1ccc(C)o1` (configuration not stated), for which the cytotoxicity at 70.5 h is -12.2%.
Take `O=C(c1ccnnc1)N1C[C@@H](OCc2cccnc2)[C@H]2OCCC[C@H]21`: the cytotoxicity at 70.5 h worked out at 27.3%.
Under `O=C(c1ccc[nH]1)N1Cc2nccn2CC(COc2cccnc2)C1` (configuration not stated) stands 18.1%.
Take `COc1cc(N2CC[C@@H]3O[C@@H](C(=O)NC(C)C)C[C@@H]32)ncn1`: the cytotoxicity at 70.5 h is -8.65%.
For the compound `Cc1ccc(N2CCO[C@H]3CN(C(=O)c4cccc(C)n4)C[C@H]32)nn1`, the cytotoxicity at 70.5 h is -9.8%.
As to `COCCNC(=O)[C@@H]1C[C@H]2[C@H](CCN2c2cc(OC)ncn2)O1`, the cytotoxicity at 70.5 h was -10.5%.
Consider `O=C(CC1CC1)N1Cc2nccn2CC(COc2cccnc2)C1` (configuration not stated), for which the cytotoxicity at 70.5 h was -14.7%.
Under `COCC(=O)N1Cc2nccn2CC(COc2cccnc2)C1` (configuration not stated) stands -14.4%; under `NC(=O)c1ccc2c(c1)nc1n2CCN(Cc2ccccc2)C1`, -15.9%.
In the case of `O=C(Cn1cc(I)cn1)Nc1cccnc1`, the cytotoxicity at 70.5 h was -9.49%.
With `CNc1nc2c(s1)C(c1cccc(F)c1F)CC(=O)N2` (configuration not stated), the cytotoxicity at 70.5 h is -11.9%.
For the compound `O=C(NCc1ccco1)c1nn(C2CCS(=O)(=O)C2)c2c1CCCC2` (configuration not stated), the cytotoxicity at 70.5 h was -10.4%.
In the case of `CC(=O)N1CCN(C(=O)c2cc(-n3cnnn3)ccc2Cl)CC1`, the cytotoxicity at 70.5 h worked out at 24.6%.
As to `COc1ccccc1C1SCC(=O)Nc2n[nH]cc21` (configuration not stated), the cytotoxicity at 70.5 h was determined as 3.24%.
With `COc1ccc(NCc2nc(=O)n(CCC(C)C)[nH]2)cc1`, the cytotoxicity at 70.5 h is -14.5%.
Under `CNc1nc2c(s1)C(c1c(Cl)cccc1Cl)CC(=O)N2` (configuration not stated) stands -15.8%; under `CC(=O)N1CCC2(CC1)C(=O)N(CC1CC1)c1ccccc12`, -11.9%; under `O=C1CC2(CCN(S(=O)(=O)c3cccs3)C2)CN1c1ccccc1` (configuration not stated), -9.28%.
For the compound `O=C(c1ccno1)N1CCC2(CC1)C(=O)N(CC1CC1)c1ccccc12`, the cytotoxicity at 70.5 h is -17.3%.
Regarding `CCOC1COC2(CCN(Cc3ccc4c(c3)OCO4)CC2)C1` (configuration not stated), the cytotoxicity at 70.5 h is -9.87%.
In the case of `O=C(O)c1ccc2ccc(N3CCN(CC4CC4)CC3)n2c1`, the cytotoxicity at 70.5 h was -9.01%.
Under `CC(C)CN1CCC2(CCN(Cc3ccoc3)CC2)C1=O` stands -12.7%; under `CN1[C@H](Cn2cccn2)C[C@@H]2CN(C(=O)Cc3cccs3)CC[C@@H]21`, 24.7%; under `O=C(C1CCOC1)N1CC[C@@H](O)[C@@H]1Cc1ccccc1` (some centres not stated), -12.1%.
Turning to `CC(C)CN1CCC2(CCN(C(=O)c3ccc(F)cc3)CC2)C1=O`, the cytotoxicity at 70.5 h was -5.58%.
For the compound `C[C@H]1C(=O)NC[C@H]2CN(Cc3ccccc3)C[C@H]21`, the cytotoxicity at 70.5 h was -2.5%.
Under `O=C1CC2(CCCCN2C(=O)c2ccsc2)CN1CC1CC1` (configuration not stated) stands 8.93%.
In the case of `CN(C)CCN1CCCC12CCN(C(=O)c1cnccn1)CC2`, the cytotoxicity at 70.5 h worked out at 6.16%.
For `CCC(CO)NC(=O)c1ccc2ccc(N(C)CC3CC3)n2c1` (configuration not stated), the cytotoxicity at 70.5 h was 3.39%.
For `COCC1CN(S(C)(=O)=O)Cc2ncn(CC3CC3)c21` (configuration not stated), the cytotoxicity at 70.5 h was -6.83%.
With `O=C(NC[C@H]1OC[C@@H]2CCN(C(=O)c3ccco3)C[C@@H]21)C1CC1`, the cytotoxicity at 70.5 h was -6.37%.
`CC(C)CC(=O)N1CCCn2cnc(CN3CCCC3=O)c2C1`: the cytotoxicity at 70.5 h is -4.92%.
Regarding `Cc1occc1C(=O)N1CCc2c(CNS(C)(=O)=O)cncc2C1`, the cytotoxicity at 70.5 h was -20.9%.
`O=C1CC2(CCCNC2)C(=O)N1Cc1ccc(F)cc1` (configuration not stated): the cytotoxicity at 70.5 h is -10.9%.
`CN(C)C(=O)[C@@H]1CC[C@@H]2[C@@H](CCN2Cc2nccs2)O1`: the cytotoxicity at 70.5 h is -14.7%.
As to `CO[C@H]1CC[C@H]2[C@H]1OCCN2Cc1ccc(F)c(F)c1`, the cytotoxicity at 70.5 h was 36.7%.
With `CC(C)N1CCC(c2nc3ccc(-c4ccnn4C)cn3n2)CC1`, the cytotoxicity at 70.5 h worked out at 19.8%.
In the case of `Cn1cc(CN2CC[C@@H]3[C@H]2CCC(=O)N3c2ccccc2)cn1`, the cytotoxicity at 70.5 h was -8.65%.
Turning to `Cc1nc(CN2CCC3(CCN(c4cnn(C)c4)C3=O)C2)cs1` (configuration not stated), the cytotoxicity at 70.5 h was -14.5%.
In the case of `CC(C)CC(=O)N1C[C@@H]2CCN(c3ncccn3)C[C@@H]2C1`, the cytotoxicity at 70.5 h stood at 42.7%.
Take `CC(=O)N1[C@H](CN(C)C)C[C@@H]2CN(C(=O)c3cccc(F)c3)CC[C@@H]21`: the cytotoxicity at 70.5 h was -14.7%.
As for `COCC(=O)NC1CC2(CCN(CCF)CC2)Oc2ccccc21` (configuration not stated), the figure is -10.9%; as for `O=C(Cc1cccs1)N1CC[C@H]2[C@@H]1CCC(=O)N2c1cccnc1`, 2.43%; as for `CN1CCC2(CC1)C(=O)N(CC1CC1)c1ccccc12`, -9.7%.
Take `COCCN1C[C@@H]2CN(Cc3cccc(C)n3)C[C@@H]2C1=O`: the cytotoxicity at 70.5 h was -13.6%.
For the compound `Cc1cccc(CN2CCC3(CCN(c4ccccn4)C3)C2=O)c1` (configuration not stated), the cytotoxicity at 70.5 h is -11.4%.
Under `COc1cccc(CN2CCC3(CCN(C(=O)[C@H]4CCCO4)CC3)C2)c1` stands -4.99%; under `Cc1ccc(C(=O)N2CCC3(CC2)CC(N2CCOCC2)C3)cc1`, -12.7%; under `O=C(C1CCCC1)N1CCC2(CC1)COCCN2CC1CC1`, -12.4%.
Take `Cc1cccc(CN2C(=O)CCC23CCN(c2ncc(F)cn2)CC3)n1`: the cytotoxicity at 70.5 h was -5.55%.
As to `Cc1nc(CN2CCC3(CC2)NC(=O)CC3c2ccccc2)cs1` (configuration not stated), the cytotoxicity at 70.5 h was -2.14%.
As for `COCCN1CCCC12CCN(C(=O)CC1CCCC1)CC2`, the figure is 3.49%; as for `O=C1CC2(CCN(CC3CC3)C2)CN1c1cccc(F)c1` (configuration not stated), 6.96%; as for `CN(C)C(=O)N1CCOCC2(CCN(c3ccccn3)C2)C1` (configuration not stated), -5.46%.
As for `CS(=O)(=O)N1CCOC2(CCCN(c3cnccn3)C2)C1` (configuration not stated), the cytotoxicity at 70.5 h is -6.97%.
For the compound `Cc1cccc(CN2CCC3(CCN(Cc4ccccn4)C3)C2=O)c1` (configuration not stated), the cytotoxicity at 70.5 h stood at 27.9%.
Under `CC[C@H]1N(C)CCC[C@]12CCC(=O)N2Cc1ccncc1` stands 10.9%; under `CN1CCN(CCO)C(=O)C12CCN(Cc1ccsc1)CC2`, -8.5%; under `Cc1ccc(C(=O)N2CCC3(CC2)CCN(CCN(C)C)C3=O)cn1`, -8.77%.
As for `Cc1cccc(CN2C(=O)C[C@H]3[C@@H]2CCN3CC2CC2)n1`, the cytotoxicity at 70.5 h was -2.5%.
`Cc1ccc(CN2Cc3nnn(C)c3C(COCCN(C)C)C2)s1` (configuration not stated): the cytotoxicity at 70.5 h was -4.13%.
Under `c1ccc(CN2CCC3(CC2)CCN(Cc2cccs2)C3)nc1` stands 0.064%.
